{
  "source": "patent US5534511A",
  "about": "“Aminoalkyl benzoxazolinones and benzothiazolinones” (Adir et Compagnie, priority 1994, dated 1996)",
  "test_system": "NMRI-CERJ mice",
  "test": "Antagonism of the hypermotility induced by amphetamine",
  "format": "in vivo",
  "settings": "d-amphetamine 4 mg kg^-1 IP, 30 minutes",
  "description": "4 mg kg^-1 of d-amphetamine are injected intraperitoneally (IP) into groups of 10 NMRI-CERJ mice immediately after IP injection of the compound to be tested, and the mice are placed in an actimeter for 30 minutes.\nThe number of interruptions of the photoelectric cells is counted, as is the stereotyped behavior.\nThe activity of the compounds tested is expressed as a percentage of the antagonism of the hyperactivity induced by amphetamine.",
  "data": [
    {"smiles": "Cn1c(=O)sc2cc(CCN3CCC(Cc4ccccc4)CC3)ccc21", "note": "[Example 1, 3-METHYL-6-[2-(4-BENZYLPIPERID-1-YL)ETHYL]BENZOTHIAZOLINONE]", "values": [
      {"measurement": "percentage of the antagonism of the hyperactivity induced by amphetamine", "setting": "2 mg.kg^-1 IP", "value": 23, "unit": "%"},
      {"measurement": "percentage of the antagonism of the hyperactivity induced by amphetamine", "setting": "4 mg.kg^-1 IP", "value": 50, "unit": "%"},
      {"measurement": "percentage of the antagonism of the hyperactivity induced by amphetamine", "setting": "8 mg.kg^-1 IP", "value": 63, "unit": "%"}
    ]}
  ]
}
